Measured values from ChEMBL document CHEMBL5441142, “Probing the Merck KGaA Open Global health library for novel starting points for anti-schistosomal drug discovery” (2024).
The source made the active and inactive calls. How the calls were made is not given here.

Each compound was assayed on Schistosoma mansoni (assay: In vitro activity screen on S. mansoni schistosomula at 10 uM. Compound-induced effects were assessed by quantifying larva motility and phenotype using Roboworm.). Conditions: Puerto Rican.
Format: functional, organism-based
Set-up: test concentration 10 uM, temperature 37 degree C, time incubation 72 h

SMILES	In vitro activity
O=C(O)c1ccc(C(=O)Nc2sc3c(c2C(=O)NCc2ccc4c(c2)OCO4)CCCC3)cc1	inactive
CCCCc1nc2ccn(Cc3ccccc3C(=O)OCC)c(=O)c2n1Cc1ccc(-c2ccccc2-c2nn[nH]n2)cc1	inactive
CCCCCCN(Cc1ccc(C#Cc2ccc(CCCC)cc2)cc1)c1ccc(O)c(C(=O)O)c1	inactive
CCN1CCC2(CC1)OC(=O)C(C)=C2C(=O)N1C[C@@H]2C[C@H]1CN2c1cc(C(F)(F)F)ccn1	inactive
CCNC1=N[C@@H]2[C@@H](O)[C@H](O)[C@@H](Cn3cc(COc4ccc(C)cc4)nn3)O[C@@H]2S1	inactive
O=C(O)c1ccc(-c2nc(NCc3ccccc3)c3c4c(sc3n2)CCCC4)cc1	inactive
COc1ccc(OC)c(-c2cn3cc(C(=O)NCCc4cc(OC)c5c(c4OC)OCO5)sc3n2)c1	inactive
O=C(C1CCCCC1)N1CC(=O)N2CCc3ccccc3[C@H]2C1	inactive
O=S(=O)(Nc1ccc2nsnc2c1)c1ccccc1-c1ccccc1	inactive
O=C(O)[C@H]1CC[C@H](c2nc(NCc3ccc4c(c3)OCO4)c3c(n2)sc2ccccc23)CC1	inactive
O=C(O)c1cn(Cc2ccc(-n3cccn3)cc2)c2c(F)ccc(F)c2c1=O	inactive
CC(C)(Sc1nc(-c2ccccc2)c(-c2ccccc2)s1)C(=O)O	inactive
CCc1cc(C)c(C(=O)N=C(N)N)cc1S(C)(=O)=O	inactive
O=C(c1cc2c(s1)CC(C(=O)O)C2)c1ccccc1Cl (stereo not drawn)	inactive
CC1=C(C(=O)N2CCc3c(F)cc(C(F)(F)F)cc3C2)C2(CCN(C3CCOCC3)CC2)OC1=O	inactive
COc1ccc(OCc2nn[nH]n2)cc1-c1cn2cc(C(=O)NCCc3c(OC)cccc3OC)sc2n1	inactive
COc1cc(SCCO)ccc1-c1nc2ccncc2[nH]1	inactive
COc1ccc(C(=O)N2CCC(C)(C)c3cc(C4=NNC(=O)SC4C)ccc32)cc1OC (stereo not drawn)	inactive
Cc1cc(-n2cccc2)c(S(C)(=O)=O)cc1C(=O)N=C(N)N	inactive
CCC(C)[S+]([O-])c1ccc(-c2nc3ccncc3[nH]2)c(OC)c1 (stereo not drawn)	inactive
Cc1ccccc1-c1ccc(-c2nc(-c3ccc(CN(C)CCC(=O)O)c(F)c3)no2)cc1OCC1CC1	inactive

SMILES	In vitro activity
COc1ccc(C2=NN(C(=O)c3ccc(NC(=O)c4cccnc4)cc3)CCC2)cc1OC1CCCC1	inactive
COc1cc(Nc2nccn3nc(Nc4cccc(C(F)(F)F)c4)nc23)cc(OC)c1	inactive
c1cnc(N2CCN(Cc3cncc(-c4ccsc4)c3)CC2)nc1	inactive
COCc1cc(-c2nc(-c3cccc(CN(C)CCC(=O)O)c3)no2)ccc1N1CCCCC1C (stereo not drawn)	inactive
O=C(O)CC1CCN(c2nc(NCc3ccc4c(c3)OCO4)c3c4c(sc3n2)CCCC4)CC1	inactive
CC1(C)Oc2ccc(C#N)cc2[C@@H](n2ccccc2=O)[C@@H]1O	inactive
COc1cc(NC(=O)c2cn(Cc3ccc(Cl)cc3)nn2)ccc1-n1cnc(C)c1	inactive
Cn1cc(-c2cnc3[nH]cc(-c4cn(Cc5cccc(F)c5F)nn4)c3c2)cn1	inactive
Cc1cc(-c2ccc[nH]2)c(S(C)(=O)=O)cc1C(=O)N=C(N)N	inactive
Cc1cc(Nc2ccccn2)c(S(C)(=O)=O)cc1C(=O)N=C(N)N	inactive
Cc1c(C(=O)N=C(N)N)cc(-n2cccc2)c(C)c1C	inactive
Cc1cc(Oc2cccnc2)c([N+](=O)[O-])cc1C(=O)N=C(N)N	inactive
Cc1ccc(-c2ccccc2)cc1C(=O)N=C(N)N	inactive
COCc1cc(-c2nc(-c3cccc(CN(C)CC(=O)O)c3)no2)ccc1N1CCCCC1	inactive
CO[C@@H]1COCC[C@@H]1N1CCC2(CC1)OC(=O)C(C)=C2C(=O)N1CCc2ccc(C(F)(F)F)cc2C1	inactive
CC1=C(C(=O)N2CCc3ccc(C(F)(F)F)cc3C2)C2(CCN(C3CCOCC3)CC2)OC1=O	inactive
O=C(O)c1ccc(C(=O)Nc2[nH]c3ccccc3c2C(=O)NCc2ccc3c(c2)OCO3)cc1	inactive
Cc1ccc(CNc2nc(N3CCC(C(=O)O)CC3)nc3sc4c(c23)CCCC4)cc1	inactive
CCCc1nn(C)c2c(=O)[nH]c(-c3cc(S(=O)(=O)Oc4nc(C)ccc4C#N)ccc3OCC)nc12	inactive
COCc1cc(-c2nc(-c3ccc(CN(C)CC(=O)O)c(F)c3)no2)ccc1-c1cccc(F)c1C	inactive
CCCc1nn(C)c2c(=O)[nH]c(-c3cc(S(=O)(=O)Oc4cccnc4C)ccc3OCC)nc12	inactive

SMILES	In vitro activity
O=C(O)c1ccc(-c2nc(NCc3ccc4c(c3)OCO4)c3c(n2)sc2ccccc23)cc1	inactive
CCOc1cc(CCNC(=O)C[C@H]2S[C@@H](c3ccc(C#Cc4ccccc4)cc3)N(c3cccc(C(N)=O)c3)C2=O)ccc1O	inactive
COc1cc(OC)cc(-c2cn3cc(C(=O)NCCc4c(OC)cc(OC)cc4OC)sc3n2)c1	inactive
CCCc1cc(C)c(C(=O)N=C(N)N)cc1S(C)(=O)=O	inactive
COCc1cc(-c2nc(-c3cccc(CN(C)CC(=O)O)c3)no2)ccc1N1CCCC1C (stereo not drawn)	inactive
CC1(C)Oc2ccc(C#N)cc2[C@H](n2ccccc2=O)[C@H]1O	inactive
CCC(C)Oc1ccc(-c2nc(-c3cc(F)cc(CN(C)CCC(=O)O)c3)no2)cc1COC (stereo not drawn)	inactive
O=C(O)c1cn(Cc2ccc(-c3ccccc3)cc2)c2ccccc2c1=O	inactive
CC1=C(C(=O)N2CCc3ncc(C(F)(F)F)cc3C2)C2(CCN(CC3CCOC3)CC2)OC1=O (stereo not drawn)	inactive
CC1=C(C(=O)N2CCc3ccc(C(F)(F)F)cc3C2)C2(CCN(C3CCOC(C)(C)C3)CC2)OC1=O (stereo not drawn)	inactive
Cc1cc(C(=O)C(C)SN2C(=O)c3ccccc3C2=O)ccc1O (stereo not drawn)	inactive
O=C(O)c1ccc(-c2nc(NCc3ccc4c(c3)OCO4)c3c4c(oc3n2)CCCC4)cc1	inactive
CCc1cc(C(=O)NCc2ccc3c(c2)OCO3)c(NC(=O)c2ccc(C(=O)O)cc2)s1	inactive
CCN1CCC2(CC1)OC(=O)C(C)=C2C(=O)N1C[C@@H]2C[C@H]1CN2c1nccc(C(F)(F)F)n1	inactive
Cc1cc(C2=CCCC2)c(S(C)(=O)=O)cc1C(=O)N=C(N)N	inactive
O=C(O)[C@H]1CC[C@H](c2nc(NCc3ccc4c(c3)OCO4)c3c4c(sc3n2)CCCC4)CC1	inactive
Cc1cc2c(cc1C(=O)N=C(N)N)S(=O)(=O)C(C)(C)CO2	inactive
CNC(=O)c1cc(Oc2ccc(NC(=O)Nc3cc(C(F)(F)F)ccc3-n3cncn3)cc2)ccn1	inactive
CC1=C(C(=O)N2CCN(c3cccc(C(F)(F)F)c3)CC2)C2(CCN(CCc3ccccc3)CC2)OC1=O	inactive
COc1cc(C(=O)NCc2cn(Cc3ccc(Cl)c(Cl)c3)nn2)ccc1-c1ccnc(C)c1	inactive
COc1cc(OC)cc(-c2cn3cc(C(=O)NCCc4ccc(OC)cc4OC)ccc3n2)c1	inactive
